Source: patent US20100227853A1, “INHIBITORS OF CYCLIC AMP PHOSPHODIESTERASES” (Trustees of Boston College, priority 2008, published 2010)

Biological target: T1, PDE4A5 (Rattus norvegicus, UniProt P54748)
T1 construct: targets used in the assays are full-length proteins (as opposed to simply the catalytic domain); expressed in transfected cells; host or cells: Schizosaccharomyces pombe, PDE gene integrated in place of cgs2
T1 sequence (P54748 1-844): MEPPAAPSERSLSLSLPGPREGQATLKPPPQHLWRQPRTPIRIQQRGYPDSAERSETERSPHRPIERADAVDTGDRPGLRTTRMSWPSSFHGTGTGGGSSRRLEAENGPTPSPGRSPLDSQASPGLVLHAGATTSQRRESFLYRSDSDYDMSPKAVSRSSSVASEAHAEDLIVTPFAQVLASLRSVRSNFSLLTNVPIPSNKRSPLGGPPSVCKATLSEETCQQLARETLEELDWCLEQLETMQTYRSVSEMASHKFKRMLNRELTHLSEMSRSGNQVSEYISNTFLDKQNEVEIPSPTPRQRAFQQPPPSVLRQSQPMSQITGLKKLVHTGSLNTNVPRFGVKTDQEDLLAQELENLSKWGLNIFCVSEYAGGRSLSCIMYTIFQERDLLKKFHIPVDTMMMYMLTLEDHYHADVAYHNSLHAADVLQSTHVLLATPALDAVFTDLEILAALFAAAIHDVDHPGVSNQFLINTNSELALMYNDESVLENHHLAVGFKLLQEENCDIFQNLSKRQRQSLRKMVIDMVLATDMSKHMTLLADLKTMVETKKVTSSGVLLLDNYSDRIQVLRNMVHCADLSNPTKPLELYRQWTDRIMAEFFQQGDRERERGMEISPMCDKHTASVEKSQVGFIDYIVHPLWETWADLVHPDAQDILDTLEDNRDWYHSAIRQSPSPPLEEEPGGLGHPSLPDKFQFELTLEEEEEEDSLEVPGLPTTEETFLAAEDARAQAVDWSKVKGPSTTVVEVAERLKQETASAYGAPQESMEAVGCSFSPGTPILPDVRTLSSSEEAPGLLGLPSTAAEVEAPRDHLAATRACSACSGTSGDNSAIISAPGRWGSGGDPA
Assay: 5FOA growth assay in fission yeast strain expressing PDE4A5
Format: cell-based
Conditions: 2 uM
Procedure: High throughput drug screens were carried out at the Broad Institute's Chemical Biology Program screening facility (Broad Institute, Cambridge, Mass.). Depending upon the strain, cultures were pregrown to exponential phase in EMM complete medium containing from 0.5 to 2.5 mM cAMP to repress fbp1-ura4 transcription. Cells were collected by centrifugation, resuspended in 5FOA medium, and 25 μl were transferred to 384-well microtiter dishes (untreated, with flat clear bottoms) that had been pre-filled with 25 μl 5FOA medium and pre-pinned with 100 nl of compounds (stock solutions were generally 10 mM) from a subset of the Prestwick Bioactive and the Microsource Spectrum compound libraries. Starting cell concentrations ranged from 0.5×10^5 to 4×10^5 cells/ml depending on the screening strain. […] Other positive control dishes contained 5 mM cAMP in the 5FOA medium. Cultures were grown for 48 hours at 30° C., sealed in an airtight container with moist paper towels to prevent evaporation. Optical densities (OD600) of cultures were measured using a microplate reader. Bioinformatic analysis of the results to determine composite Z scores was performed as previously described^30, 31.
Cells were pregrown in EMM medium [MP Biomedicals (Solon, Ohio), 3% glucose, filter-sterilized to avoid carmelization, which would introduce variability into the optical density of the medium] containing from 0 mM to 2.5 mM cAMP (or either 0.5 mM or 1.0 mM cGMP). This was to repress expression of the fbp1-ura4 reporter prior to exposure of cells to 5FOA medium. Cells were grown at 30° C. to exponential phase (approximately 10^7 cells/ml). Cells were collected by centrifugation and resuspended in 5FOA medium, and 25 μl were transferred to 384-well microtiter dishes (untreated, with flat clear bottoms) that had been pre-filled with 25 μl 5FOA medium and pre-pinned with 100 nl of compounds (stock solutions were generally 10 mM). Starting cell concentrations ranged from 0.5×10^5 to 4×10^5 cells/ml depending on the screening strain. […] Other positive control dishes contained 5 mM cAMP in the 5FOA medium for PDEs that lack appropriate control compounds. Cultures were grown for 48 hours at 30° C., sealed in an airtight container with moist paper towels to prevent evaporation. Optical densities (OD600) of cultures were measured using a microplate reader. Bioinformatic analysis of the results to determine composite Z scores was performed as previously described (1, 3).

Point of comparison: `COC(=O)C1=C(C)N(C2CCCCC2)C(=O)/C1=C\c1cccs1` [Compound 22], “2 Assay (2 uM), 4A5” value 13.66. Against it:
- N#Cc1sc2sc(C#N)c(-c3ccco3)c2c1N [Compound 30] — lower, 2.79
- COC(=O)C1=C(C)N(c2ccccc2Cl)C(=O)/C1=C\c1cccs1 [Compound 27] — lower, 12.63

Same assay, conditions: 2 uM; PDE 4A5

Point of comparison: `COc1ccc2c(c1)[C@@]1(C)CCC[C@](C)(CO)C1CC2` (some centres unmarked) [Compound 2067M03], “2 Assay (2 uM), 4A5” value 8.43. Against it:
- Cc1ccc2c(c1)CCC1CC(=O)CC[C@]21C (some centres unmarked) [Compound 2158J12] — lower, 7.00

Same assay, conditions: 20 uM

Point of comparison: `COC(=O)C1=C(C)N(c2ccccc2)/C(=C/c2cccs2)C1=O` [2008, K19], “1 Assay (20 uM) 4A5” value 0.06 ND ND ND ND. Against it:
- COC(=O)C1=C(C)N(c2ccc(C(C)C)cc2)C(=O)/C1=C\c1ccco1 [2008, 019] — higher, 1.73 ND ND ND ND
- COC(=O)C1/C(=C/c2cccc(OC)c2O)C(=O)N(c2ccccc2F)C1C (centres unmarked) [2008, C21] — higher, 1.80 ND ND ND ND

Point of comparison: `COC(=O)C1=C(C)N(C2CCCCC2)C(=O)/C1=C\c1cccs1` [Compound 22], “1 Assay (20 uM) 4A5” value −0.06. Against it:
- N#Cc1sc2sc(C#N)c(-c3ccco3)c2c1N [Compound 30] — higher, 2.14
- COC(=O)C1=C(C)N(c2ccccc2Cl)C(=O)/C1=C\c1cccs1 [Compound 27] — higher, 65.67

Same assay, conditions: 20 uM; PDE 4A5

Point of comparison: `Cc1ccc2c(c1)c1nc3ccccc3nc1n2C(C)C` [Compound 41], “1 Assay (20 uM) 4A5” value 84.08. Against it:
- Cc1ccc2c(c1)CCC1CC(=O)CC[C@]21C (some centres unmarked) [Compound 2158J12] — higher, 113.27
- COc1ccc2c(c1)[C@@]1(C)CCC[C@](C)(CO)C1CC2 (some centres unmarked) [Compound 2067M03] — lower, 16.94

Point of comparison: `c1ccc(CCn2c3ccccc3c3nc4ccccc4nc32)cc1` [2019, G03], “1 Assay (20 uM) 4A5” value 49.61 ND ND ND ND. Against it:
- CC(C)Cn1c2ccc(Br)cc2c2nc3ccccc3nc21 [2015, L04] — higher, 57.60 ND ND ND ND
- C=CCn1c2ccc(Br)cc2c2nc3ccccc3nc21 [2017, C18] — higher, 69.70 ND ND ND ND
- C=Cn1c2ccccc2c2nc3ccccc3nc21 [2033, H06] — higher, 66.58 ND ND ND ND
- CCc1ccc2c(c1)c1nc3ccccc3nc1n2CC [2015, P06] — higher, 51.82 ND ND ND ND
- CCCCn1c2ccccc2c2nc3ccccc3nc21 [2013, I20] — higher, 71.82 ND ND ND ND

Same assay, conditions: high throughput 5FOA growth screen

Point of comparison: `COc1cc(OC)c(NC(=O)c2sc3ncnc(N4CCCCC4C)c3c2C)cc1Cl` (centres unmarked) [Compound 2040J10], “Composite Z score, PDE4A5” value 0.4891. Against it:
- Cc1c(C(=O)Nc2ccc(F)cc2F)sc2ncnc(N(C)c3ccccc3)c12 [Compound 58-9] — higher, 111.95
- CCC1CCc2c(sc3ncnc(N4CCOCC4)c23)C1 (centres unmarked) [BC33] — higher, 36.026
- COc1ccc(NC(=O)c2sc3nc(C)nc(N(C)c4ccc(C(C)C)cc4)c3c2C)c(OC)c1 [Compound 2041I04] — higher, 1.1627
- CCOC(CNc1nc(C)nc2sc3c(c12)CCCC3)OCC [Compound 2040D04] — lower, −0.897
- CNc1nc(=S)[nH]c2sc3c(c12)CCCC3 [2054 E08] — lower, −0.378
- Cc1c(C(=O)NCCC2CCCCC2)sc2ncnc(N3CCCCC3C)c12 (centres unmarked) [Compound 2040H10] — higher, 3.411
- c1nc(NCCCN2CCOCC2)c2c3c(sc2n1)CCCC3 [Compound 2051N22] — lower, −4.733
- CCN(CC)c1ncnc2sc(C(=O)N(C)C3CCCCC3)c(C)c12 [Compound 2040J12] — lower, −0.227
- CCC(C)NC(=O)c1sc2nc(C)nc(N(C)c3ccc(C(C)C)cc3)c2c1C (centres unmarked) [Compound 2041K04] — higher, 10.539
- CCN(CC)c1nc(C)nc2sc(C(=O)N3CCCCCC3)c(C)c12 [Compound 2040N12] — lower, −0.705
- Cc1nc(N2CCC(C)CC2)c2c(C)c(C(=O)N3CCN(c4ccc(F)cc4)CC3)sc2n1 [Compound 2040N10] — higher, 1.3723
- c1csc(CCNc2ncnc3sc4c(c23)CCC4)c1 [Compound 2005M12] — lower, −0.574
- COc1ccccc1CNC(=O)c1sc2ncnc(N3CCN(c4ccccc4F)CC3)c2c1C [2041 E21] — higher, 2.4446
- COc1ccc(CCNc2ncnc3sc4c(c23)CCCC4)cc1 [Compound 2012B19] — higher, 20.422
- Cc1c(C(=O)NCCC(C)C)sc2ncnc(N3CCOCC3)c12 [Compound 2040F13] — lower, −0.722
- Cc1c(C(=O)N2CCCCCC2)sc2ncnc(N3CCN(c4ccccc4)CC3)c12 [Compound 2041I21] — lower, −0.939
- Cc1cc(C)c(C)c(S(=O)(=O)N2CCN(c3ncnc4sc5c(c34)CCCC5)CC2)c1C [Compound 2012L13] — lower, −0.334
- Cc1c(C(=O)Nc2ccc(F)cc2F)sc2ncnc(N3CCC(C)CC3)c12 [BC58] — higher, 154.72
- Cc1nc(NCCc2ccccc2)c2c3c(sc2n1)CCCC3 [Compound 2008G09] — lower, −4.881
- CCOC(=O)c1ccccc1NC(=O)c1sc2nc(C)nc(N(CC)CC)c2c1C [Compound 2040P12] — higher, 1.3091
- CCCCN(CC)C(=O)c1sc2ncnc(N3CCN(c4ccc(OC)cc4)CC3)c2c1C [Compound 2007H06] — lower, −10.26
- CCN(CC)c1ncnc2sc3c(c12)CCCC3 [BC44] — higher, 63.222
- O=C(/C=C/c1ccccc1)Nc1ncnc2sc3c(c12)CCC3 [Compound 2008K11] — lower, −4.329
- CC(C)CC(Nc1ncnc2sc3c(c12)CCC3)C(=O)O (centres unmarked) [Compound 2012H20] — lower, −0.102
- Cc1c(C(=O)N(C)Cc2ccccc2)sc2ncnc(N3CCN(c4ccccc4)CC3)c12 [Compound 2041G21] — higher, 0.7964
- O=C(Nc1ncnc2sc3c(c12)CCCCC3)c1ccc(F)cc1 [Compound 2012F09] — higher, 26.878
- CCN(CC)c1nc(C)nc2sc(C(=O)Nc3cc(Cl)ccc3OC)c(C)c12 [Compound 2040L12] — higher, 0.9752
- CCNc1nc(SCC(=O)NC(=O)NCc2ccccc2)nc2sc3c(c12)CCN(C)C3 [Compound 2054N05] — higher, 1.0728
- OCCNc1ncnc2sc3c(c12)CCCC3 [Compound 2051H22] — higher, 2.0846
- CCNc1nc(SCC(=O)OCC)nc2sc3c(c12)CCC(C)C3 (centres unmarked) [Compound 2053H16] — lower, −0.22
- CCOC(=O)c1sc2nc(Cc3ccccc3)nc(NCCC3CCCCC3)c2c1C [Compound 2040F07] — higher, 2.5342
- CCOC(=O)c1sc2nc(C)nc(N(C)Cc3ccccc3)c2c1C [Compound 2007L04] — higher, 13.196
- CC1CC(=O)N(c2ncnc3sc4c(c23)CCCC4)N1 (centres unmarked) [2054 E16] — higher, 0.5516
- Cc1nc(N2CCCCC2)c2c(C)c(C(=O)Nc3cccc(C(F)(F)F)c3)sc2n1 [Compound 2040F10] — higher, 1.7466
- COc1cccc(NC(=O)c2sc3ncnc(N4CCc5ccccc5C4)c3c2C)c1 [Compound 2041K21] — higher, 33.878
- CCOC(=O)c1sc2nc(C)nc(N3CCC(C)CC3)c2c1C [Compound 2007D06] — lower, −10.3
- CCNc1nc(SCc2ccc(Cl)cc2)nc2sc3c(c12)CCN(C)C3 [Compound 2054P05] — higher, 1.0025
- O=C(O)CCNc1ncnc2sc3c(c12)CCCC3 [Compound 2012O16] — lower, 0.289
